Test systems include A498; ACHN; CCRF-CEM; HCC 2998; HOP-62; Hs-578T; KM12; MDA-MB-435; MOLT-4; NCI-H226; NCI-H23; NCI-H522; NCI/ADR-RES; OVCAR-3; PC-3; RPMI-8226; SF-268; TK-10; U-251; UO-31.
What all share (experiment): inhibition of tumour cell growth, NCI panel, 48 h

These results are taken from ChEMBL document CHEMBL1201862, “PubChem BioAssay data set” (2004).

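Where inhibition never reached the appropriate level, the endpoint shown equals the highest concentration tested. Otherwise, values were interpolated linearly from a five-concentration, 48-hour dose response in 96-well plates. Abbreviation: GI50, concentration required for 50% inhibition of growth.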 Calls of active or inactive are those of the source. Rule as the data show it: active = GI50 up to about 1.1 µM and inactive = higher.

As for `CC(C)=NNc1ncnc2[nH]cnc12`, the GI50 with A498 was 5.07 µM (inactive); with ACHN, 5.7 µM (inactive); in the experiment with CCRF-CEM, 4.9 µM (inactive); in the experiment on HCC 2998, 5.04 µM (inactive); with HOP-62, 5.12 µM (inactive); in the experiment with Hs-578T, 11.8 µM (inactive). Besides, the GI50 in the experiment on KM12 was 5.33 µM (inactive); with MDA-MB-435, 6.87 µM (inactive); in the experiment with MOLT-4, 9.06 µM (inactive); in the experiment with NCI-H226, 12 µM (inactive); in the experiment with NCI-H23 it was 29.6 µM (inactive); with NCI-H522, 2.86 µM (inactive). For the same molecule, the GI50 in the experiment on NCI/ADR-RES was 5.01 µM (inactive); with OVCAR-3, 5.78 µM (inactive); in the experiment with PC-3 it was 9.04 µM (inactive); in the experiment on RPMI-8226, 4.83 µM (inactive); in the experiment on SF-268 it was 7.89 µM (inactive); in the experiment with TK-10, 4.9 µM (inactive). The GI50 was 20.4 µM (inactive) in the experiment with U-251 and 3.21 µM (inactive) with UO-31.
Regarding `O=S1(=O)c2ccccc2NC(=S)N1c1ccccc1`, the GI50 in the experiment with A498 was > 58.9 µM (inactive); in the experiment with ACHN, 70.6 µM (inactive); in the experiment on CCRF-CEM it was 54.1 µM (inactive); in the experiment on HCC 2998, 53.5 µM (inactive); with HOP-62, 7.1 µM (inactive); in the experiment on Hs-578T, 69.2 µM (inactive). The GI50 is > 77.1 µM (inactive) with KM12; 50.1 µM (inactive) in the experiment on MDA-MB-435; 29.5 µM (inactive) with MOLT-4; 43.9 µM (inactive) in the experiment on NCI-H226; 46.3 µM (inactive) in the experiment with NCI-H23; 21.3 µM (inactive) in the experiment on NCI-H522. For the same molecule, the GI50 is 60.1 µM (inactive) with NCI/ADR-RES; 41.4 µM (inactive) in the experiment on OVCAR-3; 58.3 µM (inactive) in the experiment on PC-3; > 59.2 µM (inactive) in the experiment with RPMI-8226; 71.1 µM (inactive) in the experiment with SF-268; > 72.4 µM (inactive) with TK-10. The GI50 is > 72.3 µM (inactive) in the experiment on U-251 and 36.7 µM (inactive) in the experiment on UO-31.
Consider `C=C1CCCC(C)(C)C1CCC1(C)CCC(C(C)C(=O)OC)OO1` (stereo not given), for which the GI50 in the experiment with A498 is 5.87 µM (inactive); in the experiment with ACHN, 1.27 µM (inactive); with CCRF-CEM it was 2.43 µM (inactive); in the experiment with HCC 2998 it was 4.37 µM (inactive); with HOP-62 it was 0.706 µM (active); with Hs-578T, 5.57 µM (inactive). The GI50 was 0.948 µM (active) in the experiment with KM12; 4.05 µM (inactive) with MDA-MB-435; 8.11 µM (inactive) in the experiment with MOLT-4; 6.18 µM (inactive) in the experiment with NCI-H226; 3.78 µM (inactive) in the experiment on NCI-H23; 3.34 µM (inactive) in the experiment on NCI-H522. The GI50 in the experiment with NCI/ADR-RES was 7.08 µM (inactive); with OVCAR-3, 21.8 µM (inactive); with PC-3 it was 3.74 µM (inactive); in the experiment on RPMI-8226, 5.56 µM (inactive); in the experiment with SF-268 it was 3.57 µM (inactive); in the experiment on TK-10, 4.28 µM (inactive). Further, the GI50 is 2.94 µM (inactive) in the experiment with U-251 and 0.748 µM (active) in the experiment with UO-31.
Regarding `CC(C)(C)N(Cc1ccccc1)C(=O)/C=C\[S+]([O-])c1ccccc1` (stereo not given), the GI50 was 13.4 µM (inactive) with A498; 4.71 µM (inactive) in the experiment on ACHN; 1.35 µM (inactive) with CCRF-CEM; 6.28 µM (inactive) in the experiment with HCC 2998; 8.24 µM (inactive) in the experiment with HOP-62; 2.07 µM (inactive) in the experiment on Hs-578T. The GI50 with KM12 was 5.69 µM (inactive); in the experiment on MDA-MB-435, 2.65 µM (inactive); in the experiment with MOLT-4, 2.03 µM (inactive); in the experiment on NCI-H226 it was 5.07 µM (inactive); in the experiment on NCI-H23 it was 2.86 µM (inactive); in the experiment with NCI-H522, 1.19 µM (inactive). For the same molecule, the GI50 was 2.55 µM (inactive) in the experiment on NCI/ADR-RES; 2.48 µM (inactive) in the experiment on OVCAR-3; 3.56 µM (inactive) in the experiment with PC-3; 1.84 µM (inactive) in the experiment on RPMI-8226; 2.07 µM (inactive) with SF-268; 6.75 µM (inactive) in the experiment on TK-10. For the same molecule, the figures for the GI50 in the experiment with U-251 and in the experiment with UO-31 were 3.88 µM (inactive) and 2.34 µM (inactive), respectively.
For the molecule `CC(=O)O[C@@H]1C[C@@]2(C)[C@@H]3CC=C4[C@@H](C[C@H](O)C(=O)C4(C)C)[C@]3(C)C(=O)C[C@]2(C)[C@H]1[C@@](C)(O)C(=O)/C=C/C(C)(C)OC(C)=O`, the GI50 is 0.0151 µM (active) in the experiment with A498; 0.16 µM (active) in the experiment on ACHN; 1.61 µM (inactive) in the experiment with CCRF-CEM; 0.035 µM (active) in the experiment on HCC 2998; 0.731 µM (active) with HOP-62; 4.71 µM (inactive) in the experiment with Hs-578T. Besides, the GI50 with KM12 was 4.84 µM (inactive); in the experiment on MDA-MB-435, 1.01 µM (active); in the experiment with MOLT-4 it was 3.33 µM (inactive); in the experiment on NCI-H226 it was 0.338 µM (active); in the experiment with NCI-H23, 5.26 µM (inactive); with NCI-H522, 0.541 µM (active). Besides, the GI50 is 3.64 µM (inactive) in the experiment on NCI/ADR-RES; 4.81 µM (inactive) in the experiment with OVCAR-3; 1.59 µM (inactive) in the experiment with PC-3; 2.02 µM (inactive) in the experiment on RPMI-8226; 1.01 µM (active) in the experiment on SF-268; 0.0787 µM (active) with TK-10. The GI50 is 0.617 µM (active) in the experiment with U-251 and 0.298 µM (active) in the experiment with UO-31.
Regarding `CCCC(=O)OC[n+]1ccc(-c2c(COC(=O)NC(C)C)c(COC(=O)NC(C)C)c3n2CCC3)cc1`, the GI50 was 39.7 µM (inactive) in the experiment on A498; 15.4 µM (inactive) in the experiment with ACHN; 44.6 µM (inactive) in the experiment with CCRF-CEM; > 100 µM (inactive) in the experiment with HCC 2998; 84.1 µM (inactive) in the experiment with HOP-62; > 100 µM (inactive) with Hs-578T. In addition, the GI50 in the experiment with KM12 is > 100 µM (inactive); in the experiment on MDA-MB-435 it was > 100 µM (inactive); in the experiment with MOLT-4, 41.5 µM (inactive); in the experiment with NCI-H226, > 100 µM (inactive); with NCI-H23, > 100 µM (inactive); in the experiment on NCI-H522 it was > 100 µM (inactive). The GI50 in the experiment on NCI/ADR-RES was > 100 µM (inactive); in the experiment on OVCAR-3, > 100 µM (inactive); with PC-3, 92.7 µM (inactive); with RPMI-8226, > 100 µM (inactive); in the experiment with SF-268, 65.8 µM (inactive); in the experiment on TK-10, > 100 µM (inactive). In addition, the GI50 in the experiment on U-251 and in the experiment with UO-31 was > 100 µM (inactive) each time.
Consider `C#CCn1ncc2c(SCc3ccccc3)ncnc21`, for which the GI50 in the experiment on A498 is > 100 µM (inactive); in the experiment with ACHN, > 100 µM (inactive); with CCRF-CEM, 79.8 µM (inactive); in the experiment on HCC 2998 it was > 100 µM (inactive); in the experiment with HOP-62, > 100 µM (inactive); in the experiment with Hs-578T it was > 100 µM (inactive). Also, the GI50 in the experiment with KM12 was > 100 µM (inactive); with MDA-MB-435, 99.5 µM (inactive); in the experiment with MOLT-4 it was 11.8 µM (inactive); in the experiment with NCI-H226 it was > 100 µM (inactive); in the experiment on NCI-H23, > 100 µM (inactive); in the experiment on NCI-H522, 73.1 µM (inactive). Further, the GI50 with NCI/ADR-RES was > 100 µM (inactive); in the experiment with OVCAR-3, > 100 µM (inactive); in the experiment on PC-3, 86.1 µM (inactive); in the experiment with RPMI-8226, > 100 µM (inactive); with SF-268, > 100 µM (inactive); with TK-10, > 100 µM (inactive). Besides, the GI50 with U-251 is > 100 µM (inactive); in the experiment on UO-31, 89.7 µM (inactive).
As for `O=c1oc2ccccc2c(O)c1C1c2c(c3ccccc3oc2=O)Oc2c1c(=O)oc1ccccc21`, the GI50 was 49.5 µM (inactive) in the experiment on A498; 28.4 µM (inactive) in the experiment on ACHN; 36.5 µM (inactive) with CCRF-CEM; 18.7 µM (inactive) in the experiment on HCC 2998; 64.4 µM (inactive) with HOP-62; 46.8 µM (inactive) in the experiment on Hs-578T. The GI50 in the experiment with KM12 is 26.4 µM (inactive); with MDA-MB-435 it was 28.7 µM (inactive); with MOLT-4 it was 47.5 µM (inactive); in the experiment on NCI-H226, 22.4 µM (inactive); with NCI-H23, 31.3 µM (inactive); in the experiment with NCI-H522, 39 µM (inactive). In addition, the GI50 was 60.7 µM (inactive) in the experiment with NCI/ADR-RES; 61.8 µM (inactive) in the experiment with OVCAR-3; 50.6 µM (inactive) in the experiment on PC-3; 31.7 µM (inactive) in the experiment on RPMI-8226; 29.4 µM (inactive) in the experiment with SF-268; 51.9 µM (inactive) in the experiment with TK-10. Also, the GI50 with U-251 was 38.1 µM (inactive); with UO-31, 19 µM (inactive).
